In patent US6849616B1, “Methods to potentiate intravenous estramustine phosphate” (Pharmacia Italia S.p.A., priority 1998, dated 2005):

Tests used:
[1] = test system: hormone refractory prostate cancer; settings: oral, combined with Etoposide, cited from earlier work
prostate cancer = settings: given orally with escalating doses of docetaxel, cited from earlier work
[2] = cited from earlier work
[3] = test system: hormone refractory prostate cancer; settings: oral, combined with vinblastine, cited from earlier work
[4] = test system: hormone refractory prostate cancer; settings: with Taxol, cited from earlier work
[5] = test system: advanced metastatic prostate cancer; assay: Clinical cases: weekly high-dose intravenous estramustine phosphate
tumor cell division = settings: tissue culture (Hartley-Asp, 1984); cited from earlier work
tubulin = settings: in vitro (Dahllof 1993); cited from earlier work
[6] = test system: estramustine binding protein (EMBP); settings: cited from earlier work
[7] = Gunnarsson, 1981, 1984; cited from earlier work
[8] = patients, single intravenous dose of 300 mg; previous data; cited from earlier work
[9] = Pharmacokinetics after a single high intravenous dose of estramustine phosphate in patients; settings: after a single high intravenous dose of estramustine phosphate at 1000 mg/m^2; FIG. 2
[10] = 245 patients, 300-600 mg/day i.v. for 21 days then once or twice weekly for 2 months (Andersson et al)
[11] = 1000 mg/m^2 i.v. central line, 30 minute infusion, three patients
[12] = 1500 mg/m^2 i.v. central line, 30 minutes or 1 hour infusion, three patients
[13] = 2000 mg/m^2 i.v. central line, 60 minute infusion, with anti-thrombotic agent, three patients
[14] = 2500 mg/m^2 i.v. central line, 90 minute infusion, two patients

C[C@]12CC[C@@H]3c4ccc(OC(=O)N(CCCl)CCCl)cc4CC[C@H]3[C@@H]1CC[C@@H]2OP(=O)(O)O [estramustine phosphate]
complete responses (CR) ([1]; 20 patients with soft tissue disease (3 patients)): 15% | partial responses (PR) ([1]; 20 patients with soft tissue disease (6 patients)): 30% | patients with bone metastases improved ([1]; 32 patients with bone metastases (8 patients)): 25% | patients with bone metastases stable ([1]; 32 patients with bone metastases (12 patients)): 38% | men with a 75% decrease in prostate specific antigen ([1]; overall, 13 men): 25% | men with a 50% decrease in prostate specific antigen ([1]; overall, 28 men): 54% | overall prostate specific antigen response rate (prostate cancer): 62% | partial response in lymph nodes (prostate cancer; patients with bidimensionally measurable disease (3 patients)): 43% | toxicity at 450 mg/day intravenous ([2]; 450 mg/day i.v. (Nagel and Kölln 1977)): severe gastrointestinal problems | patients with severe liver problems ([2]; 900 mg/day i.v. for 7-10 days followed by oral therapy, 11 of 18 patients (Maier 1990)): 61% | patients exhibiting gastrointestinal problems [2, 10]: 17% | patients exhibiting liver disturbances [2, 10]: 9% | patients exhibiting thrombophlebitis [2, 10]: 20% | incidence of significant cardiovascular toxicity ([3]; 4/37): 10.5% | decrease in prostate specific antigen ([3]; among 88 patients): 50-75% | most frequent toxicity [3]: mild to moderate nausea | transient hepatic enzyme elevation of grade 1-3 ([4]; 6 patients): 35.2% | edema ([4]; 8 patients): 47% | patients obtaining a PR ([4]; of six patients with measurable disease, PR of 2+, 6, and 8 months): 3 | Grade 3-4 granulocytopenia and mucositis ([4]; seventeen patients): 2 patients | median duration of response ([4]; seventeen patients): 7 months | nausea grade 1-2 ([4]; seventeen patients): 70.5% | patients with PSA decreased by ≧50% ([4]; seventeen patients): 58.8% | PSA response [5, 11]: several patients demonstrating PSA response | tolerability of infusions [5, 11]: well tolerated | tolerability of infusions [5, 12]: well tolerated | tumor response [5, 12]: one patient demonstrating a response in bulky tumor adenopathy | PSA response [5, 13]: evidence of PSA response | tolerability of infusions [5, 13]: well tolerated without serious toxicity | prostate specific antigen (PSA) response [5, 14]: both patients demonstrated a response (reduction) | tolerability of infusions [5, 14]: well tolerated without serious toxicity

C[C@]12CC[C@@H]3c4ccc(OC(=O)N(CCCl)CCCl)cc4CC[C@H]3[C@@H]1CC[C@@H]2O [estramustine]
anti-mitotic effect (tumor cell division): dose-dependent blocking of tumor cell division in the metaphase | effect on assembly of microtubules composed of only tubulin (tubulin): inhibited the assembly of microtubules | binding affinity to EMBP-like protein [6]: very high affinity | yield of estradiol and estrone, respectively, by cleavage of the carbamic ester [7]: approximately 15%

C[C@]12CC[C@@H]3c4ccc(OC(=O)N(CCCl)CCCl)cc4CC[C@H]3[C@@H]1CCC2=O [estromustine]
elimination half lives of estromustine [8]: 10 to 20 h | binding affinity to EMBP-like protein [6]: very high affinity | yield of estradiol and estrone, respectively, by cleavage of the carbamic ester [7]: approximately 15% | half life of estromustine [9]: approximately 100 hours
